Measured values reported in patent US12708676B2, “Phosphate compounds for detecting neurological disorders” (Amydis, Inc., priority 2018, dated 2026).
Converted amounts (≈) assume the structure as drawn. Like-named read-outs stand apart in the source and are kept apart here.

Key:
[1] = tested on: Aβ; assay: Example 4: detection of Aβ in the retina of a TBI (blast) mouse model; type: in vivo; conditions: blast model mice 24 hours after injury, Compound 9 intravenously; example in present tense
Method: This example is conducted to determine whether Compound 9 detects Aβ in the retina of a TBI mouse model.
Blast model mice 24 hours after injury and a non-injured mouse are administered Compound 9 intravenously. Mice retinas are scanned by scanning laser ophthalmoscopy (SLO).
Alternatively, or in addition to retinal scanning, retinal tissues are removed and stained with an anti-Aβ antibody (6E10).

[2] = Rabbit pharmacokinetics of Compound 9, Study 2 (retina, brain, blood/plasma); type: in vivo
Method: (§1) Compound 9 was injected into rabbits as a solution in 0.1 M phosphate buffer, pH 7.4 such that rabbits received either 30 mg of Compound 9 (Study 1) or 28 mg of Compound 9 (Study 2). The purpose of these studies was to confirm that Compound 9 could easily be converted into Compound 7 in vivo.
Study 2: The purpose of this study was to determine if higher concentrations of Compound 9 and/or Compound 7 was present at earlier time points in the tissues specified. Rabbits received a 1.4 mL injection of a 20 mg/mL solution of Compound 9 in 0.1 M phosphate buffer, pH 7.4. Blood was collected from rabbits (N=6) two minutes after receiving Compound 9 to determine the blood concentration at this time point (Table 8). Rabbits were then sacrificed at the specified time points (N=3 per time point) in the tables below and the average concentrations of Compound 9 and Compound 7 were determined in the retina (Table 6), brain (Table 7) and blood (Table 8).

[3] = tested on: hyperphosphorylated three repeat tau protein; assay: Example 3: retinal fluorescent imaging of model mice after intravenous Compound 9; parameters: species or system mouse; conditions: Compound 9 intravenously, retinas imaged ex vivo, example in present tense
Method: Model mice having a detectable target protein, for example, an amyloid beta protein, or a phosphorylated tau protein, or an accumulated mass thereof, are administered Compound 9 intravenously. Retinas of the mice are removed and are mounted on slides. The retinas are washed with PBS 2 times for 5 minutes. A solution of 98% formic acid is added—5 minutes for antigen retrieval. The sampled are washed with distilled water—2 times for 5 minutes. The samples are equilibrated in 1×PBS for 15 minutes, then blocked with 10% goat/donkey serum in 1× PB ST (depending on antibodies) for 1 hour. Samples are covered in foil, and washed with 1× PBS 3 times for 5 minutes each. Samples are stained with DAPI (300 nM or 100 ng/mL) in dark for 10 minutes, then tissues are washed 3×10 minutes with PBS. Antifade DAKO mounting medium is added, and coverslip and kept under foil until imaging.
Fluorescent imaging study of the samples is conducted on a Leica DMI 4000B microscope (Leica, Germany) equipped with a TCS SPE camera and Leica 10, 20 and 40× objectives. The following lasers are used to visualize fluorescent probes pertaining to DAPI (blue, nuclear stain), Compound 7 (green) and hyperphosphorylated tau (red): 408, 488 and 568 nm. Z-stacked images are taken at 40× at 0.5 μm increments to visualize the entire thickness of the tissue.

[4] = Solubility of Compound 9 / phosphate prodrugs; type: physicochemical; conditions: aqueous buffer; phosphate buffer at pH 7.4
Excerpt: Due to the poor water solubility and the large particle size of compounds such as Compound 7, prodrug derivatives of these compounds were investigated.

[5] = Rabbit pharmacokinetics of Compound 9, Study 1 (retina, brain, blood); type: in vivo; conditions: other: injection (site not specified), Study 1, 30 mg Compound 9 injected
Method: as §1
Study 1: Rabbits received a 1.5 mL injection of a 20 mg/mL solution of Compound 9 in 0.1 M phosphate buffer, pH 7.4. Rabbits were sacrificed at the specified time points (N=3 per time point) in the tables below and the average concentration of Compound 9 and Compound 7 was determined in the retina (Table 3), brain (Table 4) and blood (Table 5).

- concentration at 5 min ([2]; brain, other: injection (site or type of injection not stated), rabbit, Study 2, 28 mg Compound 9 injected, 5 min, read-out: Avg Conc., brain): 7.2 ± 2.62 ng/g
- concentration at 10 min ([2]; brain, other: injection (site or type of injection not stated), rabbit, Study 2, 28 mg Compound 9 injected, read-out: Avg Conc., brain): 2.23 ± 0.426 ng/g
- Kp ([2]; brain, rabbit, after injection of Compound 9): < 0.001
- Conversion of Compound 9 to Compound 7 in vivo ([2]; healthy rabbit model): rapidly converted to Compound 7
- concentration at 2 min ([2]; plasma, other: injection (site not specified), rabbit, Study 2, 28 mg Compound 9 injected, 2 min, read-out: Avg Conc., plasma): 67600 ± 18800 ng/mL
- concentration at 5 min ([2]; plasma, other: injection (site not specified), rabbit, Study 2, 28 mg Compound 9 injected, 5 min, read-out: Avg Conc., plasma): 40000 ± 11800 ng/mL
- concentration at 10 min ([2]; plasma, other: injection (site not specified), rabbit, Study 2, 28 mg Compound 9 injected, read-out: Avg Conc., plasma): 8860 ± 1310 ng/mL
- Avg Conc., retina ([2]; rabbit, Study 2, 28 mg Compound 9 injected, 5 min): remained undetectable
- solubility [4]: 20 to 30 mg/mL (≈ 38.6 to 58 mM)
- concentration at 15 min ([5]; blood, read-out: Avg Conc., blood): 5440 ± 767 ng/mL
- concentration at 30 min ([5]; blood, 30 min, read-out: Avg Conc., blood): 374 ± 301 ng/mL
- concentration at 60 min ([5]; blood, 60 min, read-out: Avg Conc., blood): 24.9 ± 31.8 ng/mL
- concentration at 15 min ([5]; brain, read-out: Avg Conc., brain): 0.439 ng/g
Compound: N#C/C(=C\c1ccc2cc(N3CCCCC3)ccc2c1)C(=O)NCCOCCOCCOP(=O)(O)O [Compound 9]
- Scanning laser ophthalmoscopy image of retina [1]: showing the presence of Aβ plaques
- Adverse reactions ([2]; rabbits, during the time course of the study): no adverse reactions were noted
- Detection of hyperphosphorylated three repeat tau protein in the retina [3]: detected in the retina, producing a detectable fluorescent signal
